In the supplement of paper PMC11451515:

Key:
Conditions in all cases: 48 h
NOMO1 [1] = assay: cell viability relative to DMSO control; higher = less cytotoxic
Procedure, shortened: (§1)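 NOMO1 or SEM cells were plated at 500 cells/well and P12-Ichikawa cells at 1000 cells/well in 1536-well plates (5 μl), after each leukemia line had been adapted for at least four passages in each medium. Pin dosing delivered library compounds in DMSO at 11 threefold concentrations, 47 μM to 0.79 nM. CellTiter-Glo One luminescence was read after 48 h at 37°C. Viability is reported as a per-plate percentage of DMSO wells, with cell-free wells as background.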

P12-Ichikawa [2] = assay: as above
Procedure, shortened: as §1

SEM cells [3] = assay: as above
Procedure, shortened: as §1

NOMO1 [4] = assay: AUC of viability dose-response curve (% viability x log10 dose units); higher = less sensitive
Procedure, shortened: (§2)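 Leukemia cells adapted to each medium (500 or 1000 cells/well, 1536-well plates) were exposed to library compounds in DMSO for 48 h at 37°C at 11 threefold doses, 47 μM to 0.79 nM. Luminescence by CellTiter-Glo One was normalised per plate to DMSO and cell-free wells, then fitted with a four-parameter log-logistic curve on log10 dose. Curves above full viability were scaled and quality-control failures removed before area under the curve was integrated by trapezoidal rule.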

P12-Ichikawa [5] = assay: as above
Procedure, shortened: as §2

SEM cells [6] = assay: as above
Procedure, shortened: as §2

CN(C)c1ccc(O)c2c1C[C@H]1C[C@H]3[C@H](N(C)C)C(O)=C(C(N)=O)C(=O)[C@@]3(O)C(O)=C1C2=O
cell viability [%]
Conditions	NOMO1 [1]	P12-Ichikawa [2]	SEM cells [3]
HPLM + 10% dialyzed FBS, 0.000781 µM	103	109	97.4
HPLM + 10% dialyzed FBS, 0.00234 µM	105	106	98.3
HPLM + 10% dialyzed FBS, 0.00702 µM	105	105	93.9
HPLM + 10% dialyzed FBS, 0.0211 µM	118	97.4	108
HPLM + 10% dialyzed FBS, 0.0632 µM	117	107	107
HPLM + 10% dialyzed FBS, 0.19 µM	125	110	103
HPLM + 10% dialyzed FBS, 0.569 µM	99.8	103	91.9
HPLM + 10% dialyzed FBS, 1.71 µM	111	99.9	104
HPLM + 10% dialyzed FBS, 5.12 µM	101	104	104
HPLM + 10% dialyzed FBS, 15.4 µM	100	91.2	107
HPLM + 10% dialyzed FBS, 46.1 µM	113	106	118
RPMI 5 mM glucose + 10% FBS, 0.000781 µM	103	113	98.3
RPMI 5 mM glucose + 10% FBS, 0.00234 µM	98	110	103
RPMI 5 mM glucose + 10% FBS, 0.00702 µM	109	101	93.8
RPMI 5 mM glucose + 10% FBS, 0.0211 µM	98.1	100	96.4
RPMI 5 mM glucose + 10% FBS, 0.0632 µM	114	112	114
RPMI 5 mM glucose + 10% FBS, 0.19 µM	122	103	108
RPMI 5 mM glucose + 10% FBS, 0.569 µM	107	101	105
RPMI 5 mM glucose + 10% FBS, 1.71 µM	109	95.2	110
RPMI 5 mM glucose + 10% FBS, 5.12 µM	101	88.5	103
RPMI 5 mM glucose + 10% FBS, 15.4 µM	98.5	94.9	93.5
RPMI 5 mM glucose + 10% FBS, 46.1 µM	107	93.9	106
RPMI 5 mM glucose + 10% dialyzed FBS, 0.000781 µM	96	110	106
RPMI 5 mM glucose + 10% dialyzed FBS, 0.00234 µM	93.6	116	119
RPMI 5 mM glucose + 10% dialyzed FBS, 0.00702 µM	101	112	106
RPMI 5 mM glucose + 10% dialyzed FBS, 0.0211 µM	88.7	118	106
RPMI 5 mM glucose + 10% dialyzed FBS, 0.0632 µM	95.3	118	105
RPMI 5 mM glucose + 10% dialyzed FBS, 0.19 µM	96	95.6	106
RPMI 5 mM glucose + 10% dialyzed FBS, 0.569 µM	92.8	86.2	115
RPMI 5 mM glucose + 10% dialyzed FBS, 1.71 µM	102	81.7	122
RPMI 5 mM glucose + 10% dialyzed FBS, 5.12 µM	97.3	82.5	114
RPMI 5 mM glucose + 10% dialyzed FBS, 15.4 µM	98.9	92.6	107
RPMI 5 mM glucose + 10% dialyzed FBS, 46.1 µM	113	98.8	104

AUC of viability dose-response curve
Conditions	NOMO1 [4]	P12-Ichikawa [5]	SEM cells [6]
HPLM + 10% dialyzed FBS	475	468	448
RPMI 5 mM glucose + 10% FBS	474	452	467
RPMI 5 mM glucose + 10% dialyzed FBS	409	420	475
